Measured values from ChEMBL document CHEMBL1201862, “PubChem BioAssay data set” (2004).
The source made the active and inactive calls.

How the values were obtained:
[1] = biological target: Fructose-bisphosphate aldolase (Mycobacterium tuberculosis, UniProt P9WQA3); experiment: Fluorescence-based biochemical high throughput dose response assay for inhibitors of the fructose-bisphosphate aldolase (FBA) of M. tuberculosis.; format: functional
[2] = human group III sPLA2 inhibitors, dose response, biochemical, QFRET, IC50 (AID 743457);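 further: green fluorescence rise as the enzyme cleaves BODIPY PC-A2 in liposomes; potency for inhibition of the enzyme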
[3] = ARNT/TACC3 interaction disruptors, potency, confirmation, biochemical, AlphaScreen, cherry-picked samples (AID 651703); format: functional, Homo sapiens;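 further: His-tagged ARNT PAS-B domain paired with GST-TACC3 E629A dimer coactivator fragment; potency of inhibitors that break up the complex and lower AlphaScreen signal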
[4] = biological target: T1, Low molecular weight phosphotyrosine protein phosphatase (Homo sapiens, UniProt P24666); format: functional; conditions: read-out: IC50_Mean
T1 sequence (P24666 whole entry): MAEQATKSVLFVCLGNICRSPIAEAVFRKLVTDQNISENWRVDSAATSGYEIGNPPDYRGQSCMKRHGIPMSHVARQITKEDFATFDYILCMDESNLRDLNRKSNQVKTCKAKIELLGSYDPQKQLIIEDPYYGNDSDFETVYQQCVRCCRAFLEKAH

[5] = biological target: T1, Low molecular weight phosphotyrosine protein phosphatase; format: functional; conditions: read-out: IC50_Mean; remark: listed apart in the source
cells = format: functional, cell-based
[6] = biological target: T2, Nuclear receptor subfamily 0 group B member 1 (Homo sapiens, UniProt P51843); format: functional, cell-based;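 further: HEK293T cells transfected with SF-1 and DAX-1 plus StAR promoter luciferase reporter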
T2 sequence (P51843 whole entry): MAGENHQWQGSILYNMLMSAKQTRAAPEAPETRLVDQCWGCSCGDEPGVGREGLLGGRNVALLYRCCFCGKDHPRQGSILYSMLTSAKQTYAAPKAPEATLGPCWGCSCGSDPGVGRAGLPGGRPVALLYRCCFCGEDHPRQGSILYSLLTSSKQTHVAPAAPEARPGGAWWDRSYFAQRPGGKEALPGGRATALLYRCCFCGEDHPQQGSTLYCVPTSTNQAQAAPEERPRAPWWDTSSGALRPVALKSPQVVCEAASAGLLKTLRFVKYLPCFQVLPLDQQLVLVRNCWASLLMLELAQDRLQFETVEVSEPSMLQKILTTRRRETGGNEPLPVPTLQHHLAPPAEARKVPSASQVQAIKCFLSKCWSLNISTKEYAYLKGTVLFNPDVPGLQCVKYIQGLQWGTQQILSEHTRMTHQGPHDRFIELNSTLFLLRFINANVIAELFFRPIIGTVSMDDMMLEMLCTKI

[7] = A549 cell cytotoxicity, dose response, cytotoxicity control, plate reader, cherry-pick, antagonist series (AID 743412); format: functional, cell-based
[8] = LGR2 antagonists, dose response, cell-based, HEK293, CRE-luciferase reporter, cherry pick, set 2 (AID 743343); format: functional;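 further: transfected cells were stimulated with diluted bursicon conditioned medium after compound addition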
[9] = MC4R antagonists, dose response, counter-screen for LGR2 antagonist project, cell-based, plate reader, cherry pick (AID 743444); format: functional;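 further: transfected HEK 293 cells stimulated with alpha-MSH peptide; potency of inhibitors of the alpha-MSH evoked signal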
Vero = experiment: Vero cell toxicity, dose response, cytotoxicity control, plate reader, cherry-pick samples (AID 687020); format: functional, cell-based; conditions: Chlorocebus sabaeus
[10] = HeLa cell cytotoxicity, dose response, cytotoxicity control for MgcRacGAP inhibitor project (AID 624300); format: functional
[11] = biological target: T3, Rac GTPase-activating protein 1 (Homo sapiens, UniProt Q9H0H5); experiment: MgcRacGAP GTPase-activating activity inhibitors, confirmation, biochemical, ADP Hunter fluorescence, primary and confirmatory (AID 624330); format: functional
T3 sequence (Q9H0H5 whole entry): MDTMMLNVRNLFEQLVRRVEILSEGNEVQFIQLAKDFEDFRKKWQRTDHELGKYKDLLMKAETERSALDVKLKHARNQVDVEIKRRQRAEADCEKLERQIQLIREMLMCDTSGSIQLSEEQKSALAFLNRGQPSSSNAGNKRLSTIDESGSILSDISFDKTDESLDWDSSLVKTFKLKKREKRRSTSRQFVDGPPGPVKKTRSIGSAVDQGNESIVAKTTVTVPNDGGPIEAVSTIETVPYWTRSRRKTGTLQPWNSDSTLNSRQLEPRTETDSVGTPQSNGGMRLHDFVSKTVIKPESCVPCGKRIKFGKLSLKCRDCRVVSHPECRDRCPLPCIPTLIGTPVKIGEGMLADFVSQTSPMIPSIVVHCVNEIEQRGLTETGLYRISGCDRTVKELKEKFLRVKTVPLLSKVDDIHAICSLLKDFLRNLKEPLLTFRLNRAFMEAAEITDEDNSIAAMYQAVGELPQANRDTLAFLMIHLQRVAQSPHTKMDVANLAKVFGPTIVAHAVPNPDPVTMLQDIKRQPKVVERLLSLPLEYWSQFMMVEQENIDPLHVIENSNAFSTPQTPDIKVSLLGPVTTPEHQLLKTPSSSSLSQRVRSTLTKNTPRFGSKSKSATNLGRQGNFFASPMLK

[12] = biological target: Histone-lysine N-methyltransferase NSD2 (Homo sapiens, UniProt O96028); format: biochemical
Sequence of Histone-lysine N-methyltransferase NSD2 (O96028 whole entry): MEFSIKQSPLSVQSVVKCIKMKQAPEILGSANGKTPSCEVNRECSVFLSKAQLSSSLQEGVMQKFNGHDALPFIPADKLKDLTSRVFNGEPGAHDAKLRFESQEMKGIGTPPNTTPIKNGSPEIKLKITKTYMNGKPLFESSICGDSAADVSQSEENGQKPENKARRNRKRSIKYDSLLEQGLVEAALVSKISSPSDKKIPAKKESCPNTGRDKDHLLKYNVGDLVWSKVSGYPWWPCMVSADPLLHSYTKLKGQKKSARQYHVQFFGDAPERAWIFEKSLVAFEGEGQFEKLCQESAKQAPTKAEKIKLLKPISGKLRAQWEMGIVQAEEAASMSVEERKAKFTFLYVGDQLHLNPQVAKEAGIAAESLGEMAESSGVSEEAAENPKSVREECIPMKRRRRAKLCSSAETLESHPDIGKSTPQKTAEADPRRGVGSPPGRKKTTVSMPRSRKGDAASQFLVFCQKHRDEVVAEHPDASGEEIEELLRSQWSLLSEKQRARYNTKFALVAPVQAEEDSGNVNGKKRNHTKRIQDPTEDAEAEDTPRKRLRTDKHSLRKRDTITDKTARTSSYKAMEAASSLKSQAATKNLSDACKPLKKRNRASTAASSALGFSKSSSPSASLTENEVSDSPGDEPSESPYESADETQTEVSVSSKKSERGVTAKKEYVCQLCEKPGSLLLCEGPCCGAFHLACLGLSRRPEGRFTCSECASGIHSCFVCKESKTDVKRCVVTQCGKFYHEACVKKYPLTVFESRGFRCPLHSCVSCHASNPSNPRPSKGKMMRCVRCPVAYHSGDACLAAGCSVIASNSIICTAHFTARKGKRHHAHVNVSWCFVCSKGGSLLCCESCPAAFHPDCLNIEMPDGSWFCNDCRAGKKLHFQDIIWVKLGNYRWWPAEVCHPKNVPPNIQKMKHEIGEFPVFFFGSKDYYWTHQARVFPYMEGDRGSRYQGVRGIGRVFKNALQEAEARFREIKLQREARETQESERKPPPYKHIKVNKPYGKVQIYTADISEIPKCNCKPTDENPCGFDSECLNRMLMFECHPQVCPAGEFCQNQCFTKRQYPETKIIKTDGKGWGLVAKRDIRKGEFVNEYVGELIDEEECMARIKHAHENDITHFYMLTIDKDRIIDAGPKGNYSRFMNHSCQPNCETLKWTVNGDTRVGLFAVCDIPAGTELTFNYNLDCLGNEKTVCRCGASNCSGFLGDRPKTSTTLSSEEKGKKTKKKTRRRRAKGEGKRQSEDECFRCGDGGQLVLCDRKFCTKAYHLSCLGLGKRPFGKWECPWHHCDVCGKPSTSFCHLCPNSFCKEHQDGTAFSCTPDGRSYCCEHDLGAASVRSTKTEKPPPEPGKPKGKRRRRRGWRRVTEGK

Sequence of Fructose-bisphosphate aldolase (P9WQA3 whole entry): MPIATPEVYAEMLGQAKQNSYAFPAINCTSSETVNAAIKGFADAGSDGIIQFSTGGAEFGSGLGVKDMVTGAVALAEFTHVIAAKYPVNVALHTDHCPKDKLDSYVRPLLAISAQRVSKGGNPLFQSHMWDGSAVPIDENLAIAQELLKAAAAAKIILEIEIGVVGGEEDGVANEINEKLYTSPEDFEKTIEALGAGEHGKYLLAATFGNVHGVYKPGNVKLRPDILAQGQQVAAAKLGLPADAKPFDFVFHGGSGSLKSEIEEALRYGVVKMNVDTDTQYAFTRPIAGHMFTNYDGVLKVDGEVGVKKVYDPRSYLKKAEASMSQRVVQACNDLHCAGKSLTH

COc1cc2c(cc1OC)C(C1C(=O)CC(C)CC1=O)N(C(=O)CCl)CC2 (stereo not given)
IC50 [1]: > 9.99 µM (inactive)

Sc1nnc(-c2ccc(Cl)cc2)n1-c1ccc2c(c1)OCCO2
IC50 [2]: > 122 µM (inactive)

O=C(CCN1C(=O)c2cccnc2C1=O)NC1CCCCCC1
AC50 [3]: 76.9 µM (active)

O=C(CSc1nc(-c2ccccc2)nc2ccc(F)cc12)Nc1ccc(C(=O)O)cc1
IC50 [4]: 57.3 µM (inactive) | IC50 [5]: 25.9 µM (inactive)

COc1ccc(-c2cn3cc(C)ccc3n2)cc1F
IC50 (cells): > 67.6 µM (inactive) | IC50 [6]: > 67.6 µM (inactive) | AC50 [7]: 30.9 µM (active) | AC50 [8]: 3 µM (active) | AC50 [9]: 2.87 µM (active)

CN(CC(=O)Nc1cccc(F)c1)C(=O)c1ccccc1CCc1ccccc1
AC50 (Vero): 15.3 µM (active)

CC(=O)Nc1cccc(NC(=O)c2cccc(-c3ccc(O)cc3)c2)c1
CC50 [10]: 100 µM (active) | IC50 [11]: 46.4 µM (active)

COc1c(Cl)cc(Br)c(OC)c1C(=O)NC(=O)Nc1nc(C)cc(C)n1
AC50 (Vero): 29.2 µM (active)

COCC(C)OC(=O)/C(C#N)=C\c1coc2ccc(C)cc2c1=O (stereo not given)
AC50 [12]: 11.9 µM (active)
